Assay results published in PubChem BioAssay (NCI).
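Following 48 hours of exposure in 96-well plates, responses at five concentrations were used to interpolate endpoints linearly. TGI is the concentration that stops growth completely.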

What was measured:
Experiment in all cases: NCI tumour cell line growth inhibition, 48 h
MDA-N = system: MDA-N
EKVX NSCLC = system: EKVX NSCLC
A549 NSCLC = system: A549 NSCLC
SK-OV-3 ovarian = system: SK-OV-3 ovarian
SK-MEL-2 melanoma = system: SK-MEL-2 melanoma
SF-268 CNS = system: SF-268 CNS
OVCAR-3 ovarian = system: OVCAR-3 ovarian
K-562 leukemia = system: K-562 leukemia
UACC-257 melanoma = system: UACC-257 melanoma
COLO 205 colon = system: COLO 205 colon
HCT-15 colon = system: HCT-15 colon
NCI-H522 lung = system: NCI-H522 lung
RPMI-8226 leukemia = system: RPMI-8226 leukemia
NCI-H226 lung = system: NCI-H226 lung
HOP-62 NSCLC = system: HOP-62 NSCLC
NCI/ADR-RES ovarian = system: NCI/ADR-RES ovarian
SR leukemia = system: SR leukemia
HCT-116 colon = system: HCT-116 colon
OVCAR-4 ovarian = system: OVCAR-4 ovarian
MDA-MB-231 breast = system: MDA-MB-231 breast
SW-620 colon = system: SW-620 colon
HT29 colon = system: HT29 colon
U251 CNS = system: U251 CNS
BT-549 breast = system: BT-549 breast
SK-MEL-5 melanoma = system: SK-MEL-5 melanoma
DU-145 prostate = system: DU-145 prostate
SNB-19 CNS = system: SNB-19 CNS
OVCAR-5 ovarian = system: OVCAR-5 ovarian
SF-539 CNS = system: SF-539 CNS
A498 renal = system: A498 renal
SNB-75 CNS = system: SNB-75 CNS
RXF 393 renal = system: RXF 393 renal
SF-295 CNS = system: SF-295 CNS
MOLT-4 leukemia = system: MOLT-4 leukemia
OVCAR-8 ovarian = system: OVCAR-8 ovarian
LOX IMVI melanoma = system: LOX IMVI melanoma
IGROV1 ovarian = system: IGROV1 ovarian
UO-31 renal = system: UO-31 renal
SN12C renal = system: SN12C renal
NCI-H460 lung = system: NCI-H460 lung
NCI-H23 lung = system: NCI-H23 lung
MDA-MB-435 = system: MDA-MB-435
KM12 colon = system: KM12 colon
SK-MEL-28 melanoma = system: SK-MEL-28 melanoma
TK-10 renal = system: TK-10 renal
PC-3 prostate = system: PC-3 prostate
MCF7 breast = system: MCF7 breast
ACHN renal = system: ACHN renal
HCC-2998 colon = system: HCC-2998 colon
MALME-3M melanoma = system: MALME-3M melanoma
CAKI-1 renal = system: CAKI-1 renal
786-0 renal = system: 786-0 renal
UACC-62 melanoma = system: UACC-62 melanoma
CCRF-CEM leukemia = system: CCRF-CEM leukemia
M14 melanoma = system: M14 melanoma
HOP-92 NSCLC = system: HOP-92 NSCLC
T-47D breast = system: T-47D breast

Work on `CSC(=S)OC1C(CO[Si](C)(C)C(C)(C)C)OC2OC(C)(C)OC21` (configuration not stated) yielded a TGI (MDA-N) of over 100 µM, a TGI (EKVX NSCLC) of 60.1 µM and a TGI (A549 NSCLC) of 78.6 µM. The TGI (SK-OV-3 ovarian) was 41.5 µM, the TGI (SK-MEL-2 melanoma) was 28.5 µM and the TGI (SF-268 CNS) was 45.9 µM. For the same compound, the TGI (OVCAR-3 ovarian) was 31.3 µM, the TGI (K-562 leukemia) was 31 µM and the TGI (UACC-257 melanoma) was 34.8 µM. The TGI (COLO 205 colon) was 36.1 µM, the TGI (HCT-15 colon) was 35.3 µM and the TGI (NCI-H522 lung) was 31.3 µM. For the same compound, the TGI (RPMI-8226 leukemia) was 36.5 µM, the TGI (NCI-H226 lung) was 29.7 µM and the TGI (HOP-62 NSCLC) was 34.4 µM. The TGI (NCI/ADR-RES ovarian) was 36.2 µM, the TGI (SR leukemia) was 30.4 µM and the TGI (HCT-116 colon) was 36.6 µM. It also gave a TGI (OVCAR-4 ovarian) of over 100 µM, a TGI (MDA-MB-231 breast) of 33.9 µM and a TGI (SW-620 colon) of 31.9 µM. The TGI (HT29 colon) was 24.7 µM, the TGI (U251 CNS) was 31.8 µM and the TGI (BT-549 breast) was 67 µM. It also gave a TGI (SK-MEL-5 melanoma) of 30.4 µM, a TGI (DU-145 prostate) of over 100 µM and a TGI (SNB-19 CNS) of 47 µM. It also gave a TGI (OVCAR-5 ovarian) of 37.6 µM, a TGI (SF-539 CNS) of 43.5 µM and a TGI (A498 renal) of 43.4 µM. For the same compound, the TGI (SNB-75 CNS) was over 100 µM, the TGI (RXF 393 renal) was 37.5 µM and the TGI (SF-295 CNS) was 32.2 µM. For the same compound, the TGI (MOLT-4 leukemia) was 30.5 µM, the TGI (OVCAR-8 ovarian) was 95.8 µM and the TGI (LOX IMVI melanoma) was 32 µM. It also gave a TGI (IGROV1 ovarian) of 53.6 µM, a TGI (UO-31 renal) of 32 µM and a TGI (SN12C renal) of 37.1 µM. The TGI (NCI-H460 lung) was 32.8 µM, the TGI (NCI-H23 lung) was 44.3 µM and the TGI (MDA-MB-435) was over 100 µM. For the same compound, the TGI (KM12 colon) was 30.4 µM, the TGI (SK-MEL-28 melanoma) was over 100 µM and the TGI (TK-10 renal) was 49 µM. The TGI (PC-3 prostate) was 38.4 µM, the TGI (MCF7 breast) was 29.8 µM and the TGI (ACHN renal) was 31.3 µM. For the same compound, the TGI (HCC-2998 colon) was 49 µM, the TGI (MALME-3M melanoma) was 32.4 µM and the TGI (CAKI-1 renal) was over 100 µM. For the same compound, the TGI (786-0 renal) was 42 µM, the TGI (UACC-62 melanoma) was 36.1 µM and the TGI (CCRF-CEM leukemia) was 34 µM. For the same compound, the TGI (M14 melanoma) was over 100 µM.

With `O=C(CN1CCOCC1)Nc1ccc2c(c1)C1Oc3ccccc3CC1CO2` (configuration not stated) the TGI (MDA-N) was over 100 µM, the TGI (EKVX NSCLC) was over 100 µM and the TGI (A549 NSCLC) was over 100 µM. The TGI (SK-OV-3 ovarian) was over 100 µM, the TGI (SK-MEL-2 melanoma) was over 100 µM and the TGI (SF-268 CNS) was over 100 µM. For the same compound, the TGI (OVCAR-3 ovarian) was over 100 µM, the TGI (K-562 leukemia) was over 100 µM and the TGI (UACC-257 melanoma) was over 100 µM. The TGI (COLO 205 colon) was over 100 µM, the TGI (HCT-15 colon) was over 100 µM and the TGI (NCI-H522 lung) was over 100 µM. It also gave a TGI (RPMI-8226 leukemia) of over 100 µM, a TGI (NCI-H226 lung) of over 100 µM and a TGI (HOP-62 NSCLC) of over 100 µM. For the same compound, the TGI (NCI/ADR-RES ovarian) was over 100 µM, the TGI (SR leukemia) was over 100 µM and the TGI (HCT-116 colon) was over 100 µM. For the same compound, the TGI (MDA-MB-231 breast) was over 100 µM, the TGI (SW-620 colon) was over 100 µM and the TGI (HT29 colon) was over 100 µM. The TGI (U251 CNS) was over 100 µM, the TGI (BT-549 breast) was over 100 µM and the TGI (SK-MEL-5 melanoma) was over 100 µM. It also gave a TGI (DU-145 prostate) of over 100 µM, a TGI (SNB-19 CNS) of over 100 µM and a TGI (OVCAR-5 ovarian) of over 100 µM. It also gave a TGI (SF-539 CNS) of over 100 µM, a TGI (A498 renal) of over 100 µM and a TGI (HOP-92 NSCLC) of over 100 µM. The TGI (SF-295 CNS) was over 100 µM, the TGI (MOLT-4 leukemia) was over 100 µM and the TGI (OVCAR-8 ovarian) was over 100 µM. It also gave a TGI (LOX IMVI melanoma) of over 100 µM, a TGI (IGROV1 ovarian) of over 100 µM and a TGI (T-47D breast) of over 100 µM. It also gave a TGI (UO-31 renal) of over 100 µM, a TGI (SN12C renal) of over 100 µM and a TGI (NCI-H23 lung) of over 100 µM. It also gave a TGI (MDA-MB-435) of over 100 µM, a TGI (KM12 colon) of over 100 µM and a TGI (TK-10 renal) of over 100 µM. For the same compound, the TGI (PC-3 prostate) was over 100 µM, the TGI (MCF7 breast) was over 100 µM and the TGI (ACHN renal) was over 100 µM. It also gave a TGI (HCC-2998 colon) of over 100 µM, a TGI (MALME-3M melanoma) of over 100 µM and a TGI (CAKI-1 renal) of over 100 µM. It also gave a TGI (786-0 renal) of over 100 µM, a TGI (UACC-62 melanoma) of over 100 µM and a TGI (CCRF-CEM leukemia) of over 100 µM. It also gave a TGI (M14 melanoma) of over 100 µM.
